Assay results published in ChEMBL document CHEMBL5131489, “Linotrins: Omega-3 oxylipins featuring an E,Z,E conjugated triene motif are present in the plant kingdom and alleviate inflammation in LPS-challenged microglial cells” (2022).
The source made the active and inactive calls. The rule behind the calls is not given here.

Legend:
BV-2 [1] = test: Antiinflammatory activity against LPS-stimulated C57BL/6 mouse microglial BV-2 cells assessed as reduction in cellular content of IL-1 beta level at 30 umol/L pretreated for 3 hrs followed by LPS stimulation and measured after 24 hrs by AlphaLISA assay; assay type: functional, cell-based; details: dose 30.0 µmol/L, time 27.0 hrs
BV-2 [2] = test: Antiinflammatory activity in C57BL/6 mouse microglial BV-2 cells assessed as reduction in LPS-induced TNF-alpha release at 30 umol/L pretreated for 3 hrs followed by LPS stimulation and measured after 24 hrs by AlphaLISA assay; assay type: functional; details: C57BL/6, BV-2, 27 h, dose 30 µmol/L
BV-2 [3] = test: Antiinflammatory activity in C57BL/6 mouse microglial BV-2 cells assessed as reduction in LPS-induced IL-6 release at 30 umol/L pretreated for 3 hrs followed by LPS stimulation and measured after 6 hrs by AlphaLISA assay; assay type: functional; details: C57BL/6, BV-2, 9 h, dose 30 µmol/L
BV-2 [4] = test: Antiinflammatory activity against LPS-stimulated C57BL/6 mouse microglial BV-2 cells assessed as reduction in cellular content of IL-6 level at 30 umol/L pretreated for 3 hrs followed by LPS stimulation and measured after 6 hrs by AlphaLISA assay; assay type: functional, cell-based; details: dose 30.0 µmol/L, time 9.0 hrs
BV-2 [5] = test: Antiinflammatory activity in C57BL/6 mouse microglial BV-2 cells assessed as reduction in LPS induced IL-6 mRNA expression level at 30 umol/L pretreated for 3 hrs followed by LPS stimulation and measured after 24 hrs by qRT-PCR analysis; assay type: functional, cell-based; details: dose 30.0 µmol/L, time 27.0 hrs
BV-2 [6] = test: Antiinflammatory activity against LPS-stimulated C57BL/6 mouse microglial BV-2 cells assessed as reduction in cellular content of TNF-alpha level at 30 umol/L pretreated for 3 hrs followed by LPS stimulation and measured after 24 hrs by AlphaLISA assay; assay type: functional, cell-based; details: dose 30.0 µmol/L, time 27.0 hrs
BV-2 [7] = test: Antiinflammatory activity in C57BL/6 mouse microglial BV-2 cells assessed as reduction in LPS induced IL-1 beta mRNA expression level at 30 umol/L pretreated for 3 hrs followed by LPS stimulation and measured after 24 hrs by qRT-PCR analysis; assay type: functional, cell-based; details: dose 30.0 µmol/L, time 27.0 hrs
BV-2 [8] = test: Antiinflammatory activity in C57BL/6 mouse microglial BV-2 cells assessed as reduction in LPS-induced TNF-alpha release at 30 umol/L pretreated for 3 hrs followed by LPS stimulation and measured after 6 hrs by AlphaLISA assay; assay type: functional; details: C57BL/6, BV-2, 9 h, dose 30 µmol/L
BV-2 [9] = test: Antiinflammatory activity against LPS-stimulated C57BL/6 mouse microglial BV-2 cells assessed as reduction in cellular content of TNF-alpha level at 30 umol/L pretreated for 3 hrs followed by LPS stimulation and measured after 6 hrs by AlphaLISA assay; assay type: functional, cell-based; details: dose 30.0 µmol/L, time 9.0 hrs
BV-2 [10] = test: Antiinflammatory activity against LPS-stimulated C57BL/6 mouse microglial BV-2 cells assessed as reduction in cellular content of IL-6 level at 30 umol/L pretreated for 3 hrs followed by LPS stimulation and measured after 24 hrs by AlphaLISA assay; assay type: functional, cell-based; details: dose 30.0 µmol/L, time 27.0 hrs
BV-2 [11] = test: Antiinflammatory activity in C57BL/6 mouse microglial BV-2 cells assessed as reduction in LPS-induced IL-6 release at 30 umol/L pretreated for 3 hrs followed by LPS stimulation and measured after 24 hrs by AlphaLISA assay; assay type: functional; details: C57BL/6, BV-2, 27 h, dose 30 µmol/L

Q: With `CCC(O)/C=C/C=C\C=C\[C@H](O)CCCCCCCC(=O)O` (mixture of isomers) as the molecule, how does the Activity (BV-2 [1]) read?
A: The Activity was “Active”.

Q: What about the inhibition at 30 µM (BV-2 [2]) of the same molecule?
A: The inhibition at 30 µM was 22.7%.

Q: What about the inhibition at 30 µM (BV-2 [3]) of the same molecule?
A: Its inhibition at 30 µM is 20.8%.

Q: What about the Activity (BV-2 [4]) of the same molecule?
A: Its Activity is “Active”.

Q: What about the Activity (BV-2 [5]) of the same molecule?
A: The Activity was “Active”.

Q: And the Activity (BV-2 [6])?
A: Its Activity is “Active”.

Q: And the Activity (BV-2 [7])?
A: The Activity was “Active”.

Q: What about the inhibition at 30 µM (BV-2 [8]) of the same molecule?
A: The inhibition at 30 µM was 14.1%.

Q: And the Activity (BV-2 [9])?
A: Its Activity is “Active”.

Q: And the Activity (BV-2 [10])?
A: The Activity was “Active”.

Q: What about the inhibition at 30 µM (BV-2 [11]) of the same molecule?
A: Its inhibition at 30 µM is 30.5%.
